Measurements reported in patent US4895589A, “Heterocyclic compounds” (Imperial Chemical Industries PLC, priority 1985, dated 1990).
Where two headings read alike, the source gives them in different places.

Legend:
[1] = test system: Apples; assay: Intermediate Retardant Test, apples; assay type: in vivo, Apples (Red Delicious); conditions: 672 h, ~28 days, read-out: Percentage Reduction in Height of Apples (Compared to formulation blank)
Procedure: (§1) Three species are involved in this test RICE, SPRING-BARLEY and APPLES. The variety and growth stages at spray are outlined in Table VI. Compounds were applied at 1000 ppm and 4000 ppm respectively (1 kg and 4 kg ha^-1 at a field volume of 1000 l/ha^-1) as an overall spray. This gives a foliar and root component in the test, i.e. this test will detect the activity of both root and foliar acting compounds. The rice was grown in 4" `paddy` pots, i.e. the roots and bottom of the stems are immersed in water under conditions corresponding to those in paddy fields. Spring barley and apples were grown in 4" pots. The plants were assessed for height to top-most ligule at approximately 28 days after treatment for spring barley and rice and for height to apex at approximately 28 days after the treatment for apples. In each case the result for the 1000 ppm and 4000 ppm test for each compound is compared to the height of the formulation blank in that test, presented as a percentage reduction in height compared to the formulation blank.
as §1, with “in Table XIV. Compounds were” for “in Table VI. Compounds were”, “that test, and presented as” for “that test, presented as”

[2] = test system: Wheat; assay: Whole Plant Screen (2), wheat; assay type: in vivo, Wheat (Timmo); conditions: WW, 4000 ppm
Procedure: (§2) Compound numbers 12-13, 16-17 and 19-20 were tested on an alternative whole plant screen (2). The compounds were tested for plant growth regulator activity against five species for various growth effects relevant to plant growth regulation.
The plant species used in this screen are presented in Table IV with the leaf stage at which they were sprayed. Each chemical was applied at 4000 ppm (4 kg/ha in a 1000 l/ha field volume) using a tracksprayer and a SS8004E (Teejet) nozzle. […]
After 2-6 weeks in the glasshouse, depending on the time of year, the plants were visually assessed for morphological characteristics. Formulation blanks were used as controls to assess the plants. […]

[3] = test system: plant species of Whole Plant Screen (1) or (2); assay: Across screen comparison: total retardation relative to paclobutrazol (Whole Plant Screens (1) and (2)); assay type: in vivo; conditions: for Total Retardation expressed as a percentage of the total retardation caused by paclobutrazol: compounds of EP 0052424, Table XI
Excerpt: The following Example is a general indicative comparison of compounds from EP No. 0052424 with compounds from the preferred class in the present invention. The compounds have not been side-by-side tested on this Example because of the large numbers involved but the retardant activity can be compared using a standard which has been on each test.
The compounds which are compared in this Example have been tested on one of two tests. These are the Whole Plant Screen (1) and Whole Plant Screen (2) the methods for which are described in Examples 17 and 18 respectively.
An across screen comparison between compounds is made by expressing the total retardation (ie. sum of retardation scores recorded for each species tested) caused by the compound as a percentage of the total retardation caused by the standard in that test. The standard chemical gives a measure of the performance of the test and environmental factors. By expressing the test compound activity as a percentage of the standard compound activity these factors can be eliminated . The same standard has been used in every test and this is paclobutrazol a proprietory growth regulator.

[4] = test system: Spring Barley; assay: Intermediate Retardant Test, spring barley; assay type: in vivo, Spring Barley (Atem/kym); conditions: Hordeum vulgare, 672 h, ~28 days, read-out: Percentage Reduction in Height of Spring Barley (Compared to formulation blank)
Procedure: as §1
as §1, with “in Table XIV. Compounds were” for “in Table VI. Compounds were”, “that test, and presented as” for “that test, presented as”

[5] = test system: Rice; assay: Intermediate Retardant Test, rice; assay type: in vivo, Rice (Ishikari); conditions: Oryza sativa, 672 h, ~28 days, read-out: Percentage Reduction in Height of Rice (Compared to formulation blank)
Procedure: as §1
as §1, with “in Table XIV. Compounds were” for “in Table VI. Compounds were”, “that test, and presented as” for “that test, presented as”

[6] = test system: Rice; assay: Whole Plant Screen (2), rice; assay type: in vivo, Rice (Ishikari); conditions: RC, 4000 ppm
Procedure: (§3) After 2-6 weeks in the glasshouse, depending on the time of year, the plants were visually assessed for morphological characteristics. Formulation blanks were used as controls to assess the plants.
(§4) Compound numbers 1, 5 and 7 (of the present invention) were tested against compounds A, B, C and D (compound Nos. 12, 2, 24 and 50 of Table 1 EP No. 0052424) on whole plant screen (2). The compounds were tested of plant growth regulator activity against five species and for various growth effects relevant to plant growth regulation. The structures are set out in FIG. 1.
(§5) The plant species used in this screen are presented in Table XII with the leaf stage at which they were sprayed Each chemical was applied at 4000 ppm (4 kg/ha in a 1000 l/ha field volume) using a tracksprayer and a SS8004E (Teejet) nozzle. […]

[7] = test system: Maize; assay: Whole Plant Screen (2), maize; assay type: in vivo, Maize (Earliking); conditions: MZ, 4000 ppm
Procedure: as §2
The plant species used in this screen are presented in Table IV with the leaf stage at which they were sprayed. Each chemical was applied at 4000 ppm (4 kg/ha in a 1000 l/ha field volume) using a tracksprayer and a SS8004E (Teejet) nozzle.
(§6) After spray the plants were grown in a glasshouse with 25° C. day 22° C. night temperatures and supplementary lighting was supplied when necessary (from mercury vapour lamps), to provide a 16 hour photoperiod. The exception to this were the temperate cereals, wheat and barley which were grown in 16° C. day 13° C. night temperatures.
as §3, §4
The plant species used in this screen are presented in Table XII with the leaf stage at which they were sprayed Each chemical was applied at 4000 ppm (4 kg/ha in a 1000 l/ha field volume) using a tracksprayer and a SS8004E (Teejet) nozzle.
as §6, with “day/22°” for “day 22°”, “day/13°” for “day 13°”

[8] = test system: Barley; assay: Whole Plant Screen (2), barley; assay type: in vivo, Barley (Atem); conditions: BR, 4000 ppm
Procedure: as §4, §5

[9] = test system: Tomato; conditions: TO, 4000 ppm, 2-3 weeks
Procedure: (§7) The compounds were tested for plant growth regulator activity against up to tweleve plant species for various growth effects relevant to plant growth regulation.
(§8) After spray, the plants were grown in a glasshouse with 25° C. day/22° C. night temperatures and supplementary lighting was supplied when necessary (from mercury vapour lamps), to provide a 16 hour photoperiod. The exception to this were the temperate cereals, wheat and barley, which were grown in 16° C. day 13° C. night temperatures
(§9) After 2-3 weeks in the glasshouse, depending on the time of year, the plants were visually assessed for morphological characteristics. Formulations blanks were used as controls to assess the Plants.

[10] = test system: Wheat; conditions: WW, 4000 ppm, 2-3 weeks
Procedure: as §7, §8, §9

[11] = test system: Cynosurus cristatus; conditions: CC, 4000 ppm, 2-3 weeks

With `CC(C)(C)C=CC(O)(Cn1cncn1)C(C)(C)C` (stereo not shown) [A, reference compound] the percent reduction in plant height vs formulation blank at 1000 ppm ([1]; side-by-side, Table XVII) was 2%, the percent reduction in plant height vs formulation blank at 4000 ppm ([1]; side-by-side, Table XVII) was 14% and the “G = Greening effect” value ([2]; side-by-side, Table XIII) was 1 (10-30%). For the same molecule, the “range of activity / superiority in comparison with EP 0052424 compounds” value ([3]; Tables X and XI, across screen comparison) was “higher range of activity than the rest of the compounds”, the “Total Retardation expressed as a percentage of the total retardation caused by paclobutrazol” value [3] was 62.5 % of paclobutrazol and the height reduction vs blank at 1000 ppm ([4]; side-by-side, Table XV) was 5%. The height reduction vs blank at 4000 ppm ([4]; side-by-side, Table XV) was 13%, the Percent reduction in rice plant height vs formulation blank at 1000 ppm ([5]; side-by-side, Table XVI) was 4% and the Percent reduction in rice plant height vs formulation blank at 4000 ppm ([5]; side-by-side, Table XVI) was 20%. For the same molecule, the “T = Tillering or side shooting” value ([6]; side-by-side, Table XIII) was 2 (31-60%), the “I = Interligular or internodal length reduction” value ([7]; side-by-side, Table XIII) was 1 (10-30%) and the “R = Retardation” value ([7]; side-by-side, Table XIII) was 1 (10-30%).

For `CC(C)(C)C(O)(C=Cc1ccc(Cl)cc1)Cn1cncn1` (stereo not shown) [B, reference compound], the percent reduction in plant height vs formulation blank at 1000 ppm ([1]; side-by-side, Table XVII) was 0%, the percent reduction in plant height vs formulation blank at 4000 ppm ([1]; side-by-side, Table XVII) was 3% and the “Total Retardation expressed as a percentage of the total retardation caused by paclobutrazol” value [3] was 43.1 % of paclobutrazol. For the same molecule, the height reduction vs blank at 1000 ppm ([4]; side-by-side, Table XV) was 8%, the height reduction vs blank at 4000 ppm ([4]; side-by-side, Table XV) was 7% and the Percent reduction in rice plant height vs formulation blank at 1000 ppm ([5]; side-by-side, Table XVI) was 3%. The Percent reduction in rice plant height vs formulation blank at 4000 ppm ([5]; side-by-side, Table XVI) was 11%, the “T = Tillering or side shooting” value ([8]; side-by-side, Table XIII) was 1 (10-30%) and the “I = Interligular or internodal length reduction” value ([6]; side-by-side, Table XIII) was 1 (10-30%). The “R = Retardation” value ([6]; side-by-side, Table XIII) was 1 (10-30%), the “I = Interligular or internodal length reduction” value ([7]; side-by-side, Table XIII) was 1 (10-30%) and the “R = Retardation” value ([7]; side-by-side, Table XIII) was 1 (10-30%).

With `CC(C)(C)C(O)(C#Cc1ccc(Cl)cc1)Cn1cncn1` (stereo not shown) [C, reference compound] the percent reduction in plant height vs formulation blank at 1000 ppm ([1]; side-by-side, Table XVII) was 0%, the percent reduction in plant height vs formulation blank at 4000 ppm ([1]; side-by-side, Table XVII) was 0% and the “Total Retardation expressed as a percentage of the total retardation caused by paclobutrazol” value [3] was 7.1 % of paclobutrazol. The height reduction vs blank at 1000 ppm ([4]; side-by-side, Table XV) was 4%, the height reduction vs blank at 4000 ppm ([4]; side-by-side, Table XV) was 6% and the Percent reduction in rice plant height vs formulation blank at 1000 ppm ([5]; side-by-side, Table XVI) was 5%. For the same molecule, the Percent reduction in rice plant height vs formulation blank at 4000 ppm ([5]; side-by-side, Table XVI) was 13%.

For `CCCC#CC(O)(Cn1cncn1)C(C)(C)C` (stereo not shown) [Compound 11], the “Retardation score (1-3) with greening (G), apical damage (A), tillering/side shooting (T)” value (shortened to “Retardation score … tillering/side shooting (T)”) [9] was 2T, the “Retardation score … tillering/side shooting (T)” value [10] was 1 (10-30% retardation) and the “Retardation score … tillering/side shooting (T)” value [11] was 1 (10-30% retardation). The height reduction vs blank at 1000 ppm ([4]; Table VIII) was 24% and the height reduction vs blank at 4000 ppm ([4]; Table VIII) was 49.4%.

`CCCC#CC(Cn1cncn1)(OC)C(C)(C)C` (stereo not shown) [Compound 12] gave a percent reduction in plant height vs formulation blank at 1000 ppm ([1]; Table IX) of 15.7%, a percent reduction in plant height vs formulation blank at 4000 ppm ([1]; Table IX) of 33.6% and a height reduction vs blank at 1000 ppm ([4]; Table VIII) of 2.7%. The height reduction vs blank at 4000 ppm ([4]; Table VIII) was 12.6%, the Percent reduction in rice plant height vs formulation blank at 1000 ppm ([5]; Table VII) was 23.8% and the Percent reduction in rice plant height vs formulation blank at 4000 ppm ([5]; Table VII) was 49.7%. The “I = Interligular or internodal length reduction” value ([7]; 2-6 weeks, Table V) was 1 (10-30%) and the “R = Retardation” value ([7]; 2-6 weeks, Table V) was 1 (10-30%).

Molecule `CCCC#CC(O)(Cn1cncn1)C(C)(C)CCl` (stereo not shown) [Compound 19] has a percent reduction in plant height vs formulation blank at 4000 ppm ([1]; Table IX) of 36.6%.

With `CCCCCC#CC(O)(Cn1cncn1)C(C)(C)CF` (stereo not shown) [Compound 20] the “G = Greening effect” value ([2]; 2-6 weeks, Table V) was 2 (31-60%), the “T = Tillering or side shooting” value ([2]; 2-6 weeks, Table V) was 2 (31-60%) and the “I = Interligular or internodal length reduction” value ([8]; 2-6 weeks, Table V) was 1 (10-30%). For the same molecule, the “T = Tillering or side shooting” value ([6]; 2-6 weeks, Table V) was 1 (10-30%).

For `CCCCCCC#CC(O)(Cn1cncn1)C(C)(C)CF` (stereo not shown) [Compound 21], the percent reduction in plant height vs formulation blank at 1000 ppm ([1]; Table IX) was 10% and the percent reduction in plant height vs formulation blank at 4000 ppm ([1]; Table IX) was 0%.

In the case of `COC(C)(C)C#CC(O)(Cn1cncn1)C(C)(C)C` (stereo not shown) [D, reference compound], the percent reduction in plant height vs formulation blank at 1000 ppm ([1]; side-by-side, Table XVII) is reported as 0%, the percent reduction in plant height vs formulation blank at 4000 ppm ([1]; side-by-side, Table XVII) is reported as 0% and the “Total Retardation expressed as a percentage of the total retardation caused by paclobutrazol” value [3] is reported as 3.6 % of paclobutrazol. The height reduction vs blank at 1000 ppm ([4]; side-by-side, Table XV) was 9%, the height reduction vs blank at 4000 ppm ([4]; side-by-side, Table XV) was 13% and the Percent reduction in rice plant height vs formulation blank at 1000 ppm ([5]; side-by-side, Table XVI) was 2%. For the same molecule, the Percent reduction in rice plant height vs formulation blank at 4000 ppm ([5]; side-by-side, Table XVI) was 7%.
